Type in all cases: binding
Holding throughout (details): Compound Concentration 10 µM

Test [1] concerns the target T1, panel of 442 kinases (Homo sapiens, UniProt Q86YV6).
T1 construct: purchased KINOMEscan
T1 sequence (Q86YV6 1-388): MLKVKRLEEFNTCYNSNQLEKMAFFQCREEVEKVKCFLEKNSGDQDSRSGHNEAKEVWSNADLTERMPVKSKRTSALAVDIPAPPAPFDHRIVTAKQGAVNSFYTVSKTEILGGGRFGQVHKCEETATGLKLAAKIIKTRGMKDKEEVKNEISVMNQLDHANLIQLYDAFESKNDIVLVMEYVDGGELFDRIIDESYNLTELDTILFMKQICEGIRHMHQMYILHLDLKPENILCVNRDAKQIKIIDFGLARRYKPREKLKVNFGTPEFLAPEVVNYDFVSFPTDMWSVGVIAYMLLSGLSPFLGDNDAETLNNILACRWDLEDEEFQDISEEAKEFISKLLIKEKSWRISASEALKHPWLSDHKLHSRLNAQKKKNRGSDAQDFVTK
The source says:
(§1) We assessed the selectivity of members of this scaffold using the KINOMEscan methodology across a near comprehensive panel of 442 kinases [[18,27]].

Test [2] addresses T2, panel of 442 kinases (Homo sapiens, UniProt P32298).
T2 construct: purchased KINOMEscan
Source text: as §1

Test [3] has as its target T3, panel of 442 kinases (Homo sapiens, UniProt Q9UPZ9).
T3 construct: purchased KINOMEscan
T3 sequence (Q9UPZ9 1-632): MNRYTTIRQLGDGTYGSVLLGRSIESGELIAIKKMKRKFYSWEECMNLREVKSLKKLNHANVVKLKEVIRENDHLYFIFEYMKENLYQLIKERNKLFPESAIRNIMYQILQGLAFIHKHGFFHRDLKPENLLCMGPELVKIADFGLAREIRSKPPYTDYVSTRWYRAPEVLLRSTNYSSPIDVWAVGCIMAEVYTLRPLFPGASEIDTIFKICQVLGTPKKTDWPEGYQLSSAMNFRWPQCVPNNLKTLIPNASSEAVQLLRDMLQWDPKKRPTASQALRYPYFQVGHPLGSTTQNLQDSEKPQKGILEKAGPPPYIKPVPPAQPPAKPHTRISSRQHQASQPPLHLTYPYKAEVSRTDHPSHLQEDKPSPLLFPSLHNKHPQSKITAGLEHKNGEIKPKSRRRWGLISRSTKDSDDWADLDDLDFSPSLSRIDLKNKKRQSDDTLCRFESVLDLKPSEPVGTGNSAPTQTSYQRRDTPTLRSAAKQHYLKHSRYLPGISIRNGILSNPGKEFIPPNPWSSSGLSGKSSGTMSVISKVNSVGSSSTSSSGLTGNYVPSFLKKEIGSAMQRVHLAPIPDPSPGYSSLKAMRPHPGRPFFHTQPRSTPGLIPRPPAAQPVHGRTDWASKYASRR
Source text: as §1

T2 sequence (P32298 whole entry): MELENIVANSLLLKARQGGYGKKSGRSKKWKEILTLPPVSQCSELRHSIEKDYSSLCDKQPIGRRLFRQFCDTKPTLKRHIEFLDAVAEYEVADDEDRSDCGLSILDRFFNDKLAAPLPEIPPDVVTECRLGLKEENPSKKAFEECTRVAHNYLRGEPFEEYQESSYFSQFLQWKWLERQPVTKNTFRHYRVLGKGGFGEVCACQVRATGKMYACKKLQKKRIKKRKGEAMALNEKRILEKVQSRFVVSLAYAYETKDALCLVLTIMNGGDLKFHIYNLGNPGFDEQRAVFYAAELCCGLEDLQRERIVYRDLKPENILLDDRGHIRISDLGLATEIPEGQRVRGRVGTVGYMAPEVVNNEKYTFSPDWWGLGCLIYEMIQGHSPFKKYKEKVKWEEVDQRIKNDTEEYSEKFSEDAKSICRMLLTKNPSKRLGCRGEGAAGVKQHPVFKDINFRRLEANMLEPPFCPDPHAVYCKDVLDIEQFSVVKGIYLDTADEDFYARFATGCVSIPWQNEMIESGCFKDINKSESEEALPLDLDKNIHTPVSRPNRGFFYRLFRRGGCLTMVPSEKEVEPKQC

For `CCOc1cc(C(=O)N2CCC(N3CCN(C)CC3)CC2)ccc1Nc1ncc2c(n1)N(C1CCCC1)c1ccccc1C(=O)N2C` [Compound 26], the “KINOMEscan: MYLK4” value in test [1] stood at 100. Moreover, in test [2], the “KINOMEscan: GRK4” value was 100. Moreover, in test [3], the “KINOMEscan: ICK” value is 100.

As for `COc1cc(C(=O)N2CCC(N3CCN(C)CC3)CC2)ccc1Nc1ncc2c(n1)N1CCc3cccc(c31)C(=O)N2C` [Compound 24], in test [1], the “KINOMEscan: MYLK4” value came to 78.

Consider `COc1cc(C(=O)N2CCC(N3CCN(C)CC3)CC2)ccc1Nc1ncc2c(n1)N(C)c1ccccc1C(=O)N2C` [15 (LRRK2-IN-1)], for which, in test [1], the “KINOMEscan: MYLK4” value amounted to 80. The “KINOMEscan: GRK4” value in test [2] came to 86. In test [3], the “KINOMEscan: ICK” value is reported as 90.

`COc1cc(C(=O)N2CCC(N3CCN(C)CC3)CC2)ccc1Nc1ncc2c(n1)N(C1CCCC1)c1ccccc1C(=O)N2C` [Compound 25, 11-cyclopentyl-2-((2-methoxy-4-(4-(4-methylpiperazin-1-yl)piperidine-1-carbonyl)phenyl)amino)-5-methyl-5H-benzo[e]pyrimido[5,4-b][1,4]diazepin-6(11H)-one]: the “KINOMEscan: MYLK4” value in test [1] stood at 88. In addition, the “KINOMEscan: GRK4” value in test [2] turned out to be 98. In addition, the “KINOMEscan: ICK” value in test [3] came to 100.

For the origin of these results see article PMC3914206.
